Measured values: US6020363A, “Isocoumarin derivatives and use thereof in drugs” (Mercian Corporation, priority 1998, dated 2000)

How the values were obtained:
[1] = tested on: collagen-induced arthritis; assay: Inhibitory Effect on Collagen-Induced Arthritis (No. 1), sole thickness; assay type: in vivo, DBA/1J mice; settings: intraperitoneal, mean ± SD, *p < 0.05 vs control (8.02 ± 0.82)
Method: (§1) The preventive effect on the onset of collagen-induced arthritis was tested by using DBA/1J mice in groups of 5-8. Specifically, type II collagen was mixed with an equal volume of Freund's complete adjuvant and emulsified to prepare a 1 mg/ml emulsion. Mice were sensitized by administering 0.1 ml of this emulsion intracutaneously to the root of the tail. After 21 days, the mice were additionally immunized by emulsifying type II collagen in the same manner as before and administering 0.1 ml of the emulsion intraperitoneally so as to induce arthritis.
Starting from the day of the first sensitization with type II collagen, Compound 1 was orally administered, once a day, for 43 days in a dose of 10 or 30 mg/kg body weight. Similarly, each of Compounds 2 and 3 was intraperitoneally administered, once a day, for 43 days in a dose of 1 or 10 mg/kg body weight. Their inhibitory effect on collagen-induced arthritis was evaluated by measuring the sole thicknesses of the hind legs periodically with digital vernier calipers.

[2] = tested on: collagen-induced arthritis; assay: Inhibitory Effect on Collagen-Induced Arthritis (No. 2), arthritis score; assay type: in vivo, DBA/1J mice; settings: oral, mean ± SE, maximum 16
Method: as §1
Animals having arthritis induced in the same manner as described above were used in groups of 7-8. Compound 3 was orally administered, once a day, for 21 days following the additional immunization in a dose of 1, 3 or 10 mg/kg body weight. For comparative purposes, MI43 was similarly administered to another group in a dose of 30 mg/kg body weight. According to the degree of rubor, swelling and rigidity in each of the forelegs and hind legs of the experimental animals, their inhibitory effect on collagen-induced arthritis was evaluated on the following basis by a score ranging from 0 to 4 (with a maximum value of 16).
0: No symptom is observed.
2: Two or more small joints, or a relatively large joint such as that of the wrist or ankle, show rubor or swelling.
4: The total swelling of the hand or foot reaches its peak and, moreover, is accompanied by joint rigidity.

5-lipoxygenase = assay: Effect on 5-lipoxygenase activity; assay type: biochemical, rats
Method: Moreover, its inhibitory effect on 5-lipoxygenase was tested according to the method of Egan et al. (Journal of Biological Chemistry, 260: 11554-11559, 1985). Specifically, an enzyme preparation derived from the basophilic leukemia cells (RBL-1) of rats was used. This enzyme preparation, together with 30 μM Compound 3, was incubated at room temperature for 5 minutes, followed by the addition of linolenic acid. Thereafter, this mixture was incubated at room temperature for 8 minutes. After the reaction was stopped by the addition of a sodium hydroxide solution, its absorbance was measured at 234 nm.

[3] = parameters: species or system DBA/1J mice; settings: mouse, in vivo, po, 30 mg/kg
Method: (§2) Among the compounds in accordance with the present invention, each of Compounds 1, 2 and 3 was orally or intraperitoneally administered to eight DBA/1J mice in a dose of 100 mg/kg body weight. […] This seems to indicate that the compounds used in the present invention have no or very little, if any, acute toxicity. Moreover, Compound 1, in a dose of 100 mg/kg body weight, or Compound 3, in a dose of 30 mg/kg body weight, was orally administered to eight mice of the aforesaid strain for 40 days. […] Thus, the compounds of the present invention have little subacute toxicity. Since other compounds in accordance with the present invention are estimated to have similar properties, the compounds of the present invention can be used very safely.

Acute toxicity in mice = assay type: in vivo, DBA/1J mice; settings: 100 mg/kg
Method: as §2

[4] = tested on: cyclooxygenase (or prostaglandin endoperoxide synthase); assay: Effect on cyclooxygenase activity; assay type: biochemical, sheep
Method: The inhibitory effect of Compound 3 on cyclooxygenase (or prostaglandin endoperoxide synthase) activity was tested according to the method of Evans et al. (Biochemical Pharmacology, 36: 2035-2037, 1987). Specifically, an enzyme preparation derived from the seminal vesicles of sheep was incubated at 27° C. for 1.5 minutes in the presence of 500 μM arachidonic acid and 300 μM Compound 3. After the reaction was stopped by adding trichloroacetic acid to the reaction mixture, its absorbance was measured at 532 nm.

[5] = Levels of Orally Administered Test Compounds in Blood Plasma; assay type: in vivo, male ICR mice; settings: oral 25 mg/kg
Method: Each of Compound 3 and MI43 was orally administered to fasted male ICR mice (weighing 18-21 g) in a dose of 25 mg/kg. Blood samples were collected from the mice 5 minutes, 30 minutes, 4 hours, 8 hours and 24 hours after administration (3 mice per point for Compound 3 and 5 mice per point for MI43). These blood samples were centrifuged to obtain blood plasma samples. Each of the blood plasma samples was subjected to the following pretreatment and then analyzed by high-performance liquid chromatography (HPLC). 1.8 ml of a saturated aqueous solution of ammonium sulfate and 1.0 ml of methanol were added to and mixed with 0.2 ml of the blood plasma sample. This mixture was shaken with 3.5 ml of ethyl acetate. After this mixture was centrifuged, the ethyl acetate layer was separated. Moreover, the aqueous layer was shaken with 3.5 ml of ethyl acetate, followed by centrifugation. The ethyl acetate layer thus obtained was combined with the previously separated ethyl acetate layer, and this mixture was evaporated to dryness under reduced pressure. The resulting residue was redissolved in 0.2 ml of a 50% aqueous solution of acetonitrile and used as a sample for HPLC.
The analytical conditions for HPLC (using the CCTD system manufactured by Toso Co., Ltd.) were as follows: A YMC A-312 column (ODS 6×150 mm; manufactured by YMC Co., Ltd.) was used as the column. As the mobile phase, a 60:40 mixture of acetonitrile and 0.1% aqueous TFA was used for Compound 3, and a 40:60 mixture of acetonitrile and 0.1% aqueous TFA was used for MI43. The rest compound was eluted at a flow velocity of 1.0 ml/min and detected by UV light at 244 nm.

Q: For `COc1cc(O)c2c(=O)oc(C(C)C(=O)O)cc2c1` (stereo not drawn) [Compound 3, 2-(8-hydroxy-6-methoxy-1-oxo-1H-2-benzopyran-3-yl)propionic Acid], which “Sole thickness (sum of left and right, mm), after 37 days” value ([1]; 1 mg/kg/day) is on record?
A: 7.08 ± 0.16 mm

Q: What about the “Sole thickness (sum of left and right, mm), after 37 days” value ([1]; 10 mg/kg/day) of the same molecule?
A: 6.78 ± 0.98 mm

Q: And the “Score after 37 days” value ([2]; 1 mg/kg/day, control 9.25 ± 1.35)?
A: 6.50 ± 1.49

Q: And the “Score after 37 days” value ([2]; 3 mg/kg/day, control 9.25 ± 1.35)?
A: 5.00 ± 1.61

Q: What about the “Score after 37 days” value ([2]; 10 mg/kg/day, **p < 0.01 vs control (9.25 ± 1.35)) of the same molecule?
A: 3.50 ± 0.63

Q: And the “Degree of inhibition (%), 5-Lipoxygenase” value (5-lipoxygenase; 30 μM Compound 3, n = 2)?
A: 21.0%

Q: What about the “inhibitory effect on lipoxygenase (in words)” value (5-lipoxygenase; 30 μM or 300 μM) of the same molecule?
A: no inhibitory effect on cyclooxygenase or lipoxygenase

Q: What about the “evidence of toxicity, 40 days” value [3] of the same molecule?
A: no animal showed evidences of toxicity

Q: What about the “mortality, 40 days” value [3] of the same molecule?
A: No animal died

Q: What about the “evidence of toxicity, single administration” value (Acute toxicity in mice; mouse, in vivo) of the same molecule?
A: no animal showed evidences of toxicity

Q: And the “mortality, single administration” value (Acute toxicity in mice; oral or intraperitoneal, eight DBA/1J mice)?
A: No animal died

Q: What about the “inhibitory effect on cyclooxygenase (in words)” value ([4]; 30 μM or 300 μM) of the same molecule?
A: no inhibitory effect on cyclooxygenase or lipoxygenase

Q: What about the “Degree of inhibition (%), Cyclooxygenase” value ([4]; 300 μM Compound 3, 500 μM arachidonic acid, n = 2) of the same molecule?
A: -4.0%

Q: And the concentration at 5 min ([5]; mouse, plasma, 5 min, read-out: Concentration of unchanged Compound 3 in blood plasma, mean)?
A: 123 µg/mL

Q: What about the concentration at 0.5 h ([5]; mouse, plasma, 30 min, read-out: Concentration of unchanged Compound 3 in blood plasma, mean) of the same molecule?
A: 131 µg/mL

Q: What about the concentration at 4 h ([5]; mouse, plasma, 4 hr, read-out: Concentration of unchanged Compound 3 in blood plasma, mean) of the same molecule?
A: 63 µg/mL

Q: What about the concentration at 8 h ([5]; mouse, plasma, 8 hr, read-out: Concentration of unchanged Compound 3 in blood plasma, mean) of the same molecule?
A: 38.4 µg/mL

Q: What about the concentration at 24 h ([5]; mouse, plasma, 24 hr, read-out: Concentration of unchanged Compound 3 in blood plasma, mean) of the same molecule?
A: 0.19 µg/mL

Q: What about the Tmax ([5]; mouse, plasma, unchanged compound, read-out: time of peak / highest plasma level after administration (converted)) of the same molecule?
A: 30 min

Q: And the “plasma concentration after 8 hours (in words)” value ([5]; 8 hr)?
A: remained high even after 8 hours

Q: And the “plasma concentration after 24 hours (in words)” value ([5]; 24 hr)?
A: dropped to a vary low level after 24 hours
